# Assay results reported in PMC4029847 (Journal of clinical pharmacology, 2013).
# Target: T1, OATP1A2 (Homo sapiens, UniProt P46721)
# T1 sequence (P46721 1-670): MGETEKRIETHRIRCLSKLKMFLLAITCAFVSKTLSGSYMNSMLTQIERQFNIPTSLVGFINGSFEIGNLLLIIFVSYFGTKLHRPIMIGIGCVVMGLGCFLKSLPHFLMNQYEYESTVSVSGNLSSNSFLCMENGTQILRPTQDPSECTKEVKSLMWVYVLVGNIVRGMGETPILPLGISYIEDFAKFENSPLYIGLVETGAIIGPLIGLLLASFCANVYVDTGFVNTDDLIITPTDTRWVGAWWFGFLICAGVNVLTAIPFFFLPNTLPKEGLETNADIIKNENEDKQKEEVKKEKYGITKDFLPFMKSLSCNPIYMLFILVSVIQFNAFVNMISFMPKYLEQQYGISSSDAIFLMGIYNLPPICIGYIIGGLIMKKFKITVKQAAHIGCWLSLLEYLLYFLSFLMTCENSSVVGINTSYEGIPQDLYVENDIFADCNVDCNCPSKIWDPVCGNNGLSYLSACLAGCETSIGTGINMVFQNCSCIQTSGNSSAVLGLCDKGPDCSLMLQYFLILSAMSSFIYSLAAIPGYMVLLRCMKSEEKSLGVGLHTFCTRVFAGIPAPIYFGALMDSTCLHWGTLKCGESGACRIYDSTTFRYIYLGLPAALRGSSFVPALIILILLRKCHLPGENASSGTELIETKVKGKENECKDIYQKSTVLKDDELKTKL
# Test: Inhibition of fexofenadine uptake in OATP1A2-transfected HEK293T/17 cells
# Type: cell-based
# Details: inhibitor 250 μmol/l, fexofenadine 5 μmol/l, 30 min
structure (smiles),measurement,value
"O=C1OC(c2ccc(O)c(S(=O)(=O)O)c2)(c2ccc(O)c(S(=O)(=O)O)c2)c2c(Br)c(Br)c(Br)c(Br)c21 [BSP, bromosulfophthalein]",Inhibition of fexofenadine uptake,did not inhibit
